The source of these data is US8173689B2 (Novartis AG, priority 2006, dated 2012).

Structures are written as SMILES. Where two headings read alike, the source gives them in different places.

The target of assay [1] is T1, full-length human CSF-1R receptor (Homo sapiens, UniProt P07333).
T1 construct: transfected with the full-length human CSF-1R receptor cloned in house; expressed in transfected cells; host or cells: HEK293H (Invitrogen Cat. #11631017)
Put plainly: In vitro inhibition of CSF-1R receptor tyrosine phosphorylation in transfected HEK293H cells stimulated with MCSF. Conditions: HEK293-H, tested at about 1 μM, read-out: pCSF1R percent inhibition. The format is cell-based. How it is done:
The lysate was then transferred to total CSF-1R antibody coated 96-well plates that had already been blocked with 3% Blocker A from Mesoscale discovery (MSD) for 2 hours and washed afterwards. Lysates were incubated overnight at 4° C. and the plates were then washed 4× with MSD Tris Wash Buffer. […] The plates were read on the Sector 6000 instrument (MSD). Raw data was imported in Abase and EC50s calculated with XL-fit data analysis software.

A further assay addresses T2, kinase domain of cKIT (Homo sapiens, UniProt P10721).
T2 construct: The kinase domain of cKIT was assayed in 50 mM Hepes; purchased Upstate 14-559
Put plainly: Inhibition of cKIT kinase signaling in an in vitro biochemical assay (alphascreen). Conditions: tested at about 1 μM, read-out: cKit percent inhibition. A general note: Bead proximity is the source of the signal in Alpha formats.

Assay [2] deals with MNFS60 (murine AML cells). The experiment in a line: Cell viability assay in MCSF dependent MNFS60 cells (Cell Titer Glo). The format is cell-based. The settings on record: Mus musculus, tested at about 1 μM, read-out: M-NFS-60 CP percent inhibition. An outline of the steps: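 Compounds were serially diluted 3-fold in DMSO to 500× final and added to cells with MCSF at 10 ng/ml final. After 72 hrs at 37° C. under 5% CO2, viable cells were quantified by CellTiter-Glo luminescence; triplicate wells gave EC50 values by curve fitting.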
(In general: Cellular ATP, detected with luciferase, serves as a proxy for viable cell number.)

The target of a further assay is T3, kinase domain of PDGFRβ (Homo sapiens, UniProt P09619).
T3 construct: The kinase domain of PDGFRβ was assayed in 50 mM Hepes; purchased Invitrogen P3082
The experiment in a line: Inhibition of PDGFRb kinase signaling in an in vitro biochemical assay (alphascreen). The settings on record: tested at about 1 μM, read-out: PDGFRβ percent inhibition.

The target of assay [3] is T4, cytoplasmic domain of the human CSF-1R (Homo sapiens, UniProt P07333).
T4 construct: Recombinant protein corresponding to the cytoplasmic domain of the human CSF-1R; purchased Invitrogen Corporation, Carlsbad, Calif; PV3249
T4 sequence (P07333 539-972 limits assumed): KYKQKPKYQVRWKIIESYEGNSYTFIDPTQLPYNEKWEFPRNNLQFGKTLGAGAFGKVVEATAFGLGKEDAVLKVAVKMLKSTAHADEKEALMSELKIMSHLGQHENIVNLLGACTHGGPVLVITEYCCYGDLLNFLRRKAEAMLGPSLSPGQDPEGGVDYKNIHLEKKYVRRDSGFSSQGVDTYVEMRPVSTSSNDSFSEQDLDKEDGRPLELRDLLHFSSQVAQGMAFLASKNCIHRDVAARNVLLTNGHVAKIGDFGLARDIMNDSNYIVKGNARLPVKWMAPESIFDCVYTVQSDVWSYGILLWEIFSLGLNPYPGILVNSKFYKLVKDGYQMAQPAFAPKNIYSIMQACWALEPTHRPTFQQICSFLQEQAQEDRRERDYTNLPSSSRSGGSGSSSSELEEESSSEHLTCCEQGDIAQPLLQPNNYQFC
The experiment in a line: In vitro kinase assay for colony stimulating factor-1 receptor (AlphaScreen). The format is biochemical. Conditions: tested at about 1 μM, read-out: CSF-1R percent inhibition. An outline of the steps:
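4 nM enzyme, 1 μM ATP; buffer 50 mM Hepes pH 7.5, 5 mM MgCl2, 10 mM MnCl2, 1.0 mM DTT, 0.1% BSA, 0.01% Tween 80. Readout: AlphaScreen, PT66 acceptor/streptavidin donor, overnight.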

T2 sequence (P10721 589-937 limits assumed): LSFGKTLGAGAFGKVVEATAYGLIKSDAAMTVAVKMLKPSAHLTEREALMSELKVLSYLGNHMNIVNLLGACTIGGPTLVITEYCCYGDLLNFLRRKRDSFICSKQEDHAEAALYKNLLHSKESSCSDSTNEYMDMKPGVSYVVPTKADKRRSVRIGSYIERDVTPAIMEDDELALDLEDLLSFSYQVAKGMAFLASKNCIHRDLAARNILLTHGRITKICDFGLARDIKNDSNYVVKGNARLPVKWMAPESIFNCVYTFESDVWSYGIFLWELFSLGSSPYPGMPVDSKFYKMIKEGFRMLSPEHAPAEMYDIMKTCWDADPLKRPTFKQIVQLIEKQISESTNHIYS
T1 sequence (P07333 20-972): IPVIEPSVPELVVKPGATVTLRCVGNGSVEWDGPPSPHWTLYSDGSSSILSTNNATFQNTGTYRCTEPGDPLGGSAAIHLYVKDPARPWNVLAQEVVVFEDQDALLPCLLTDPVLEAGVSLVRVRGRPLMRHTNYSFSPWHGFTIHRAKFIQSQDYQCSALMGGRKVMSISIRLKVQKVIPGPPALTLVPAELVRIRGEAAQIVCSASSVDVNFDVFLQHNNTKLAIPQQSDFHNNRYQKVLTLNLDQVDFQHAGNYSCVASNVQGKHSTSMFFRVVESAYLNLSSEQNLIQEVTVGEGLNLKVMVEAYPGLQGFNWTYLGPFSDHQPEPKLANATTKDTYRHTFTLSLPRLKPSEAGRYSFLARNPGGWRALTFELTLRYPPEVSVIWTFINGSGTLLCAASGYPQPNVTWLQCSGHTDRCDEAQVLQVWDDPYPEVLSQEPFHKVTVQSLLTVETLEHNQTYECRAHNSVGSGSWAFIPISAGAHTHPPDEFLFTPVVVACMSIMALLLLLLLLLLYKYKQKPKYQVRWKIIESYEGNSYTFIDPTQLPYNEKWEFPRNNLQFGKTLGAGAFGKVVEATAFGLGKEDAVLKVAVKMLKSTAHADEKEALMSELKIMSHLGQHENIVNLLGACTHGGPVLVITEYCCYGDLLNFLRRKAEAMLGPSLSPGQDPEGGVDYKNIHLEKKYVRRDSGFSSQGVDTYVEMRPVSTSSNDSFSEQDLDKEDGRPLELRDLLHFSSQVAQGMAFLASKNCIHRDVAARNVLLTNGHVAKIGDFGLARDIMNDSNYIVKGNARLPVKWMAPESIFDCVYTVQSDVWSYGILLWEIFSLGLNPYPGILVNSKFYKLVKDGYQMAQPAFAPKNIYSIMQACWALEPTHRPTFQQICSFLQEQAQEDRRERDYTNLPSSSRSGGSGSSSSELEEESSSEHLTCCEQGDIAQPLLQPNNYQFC
T3 sequence (P09619 600-962 limits assumed): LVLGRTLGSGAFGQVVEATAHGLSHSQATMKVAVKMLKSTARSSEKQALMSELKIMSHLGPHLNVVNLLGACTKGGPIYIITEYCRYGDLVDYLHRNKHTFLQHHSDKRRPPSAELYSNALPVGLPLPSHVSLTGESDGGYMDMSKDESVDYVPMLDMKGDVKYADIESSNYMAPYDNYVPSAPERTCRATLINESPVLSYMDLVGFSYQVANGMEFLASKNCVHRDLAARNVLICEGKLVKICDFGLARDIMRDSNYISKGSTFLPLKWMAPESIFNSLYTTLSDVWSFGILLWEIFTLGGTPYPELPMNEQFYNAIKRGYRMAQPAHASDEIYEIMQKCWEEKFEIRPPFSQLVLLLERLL

What is called inhibition is the percentage by which the read-out fell short of the control. `CNC(=O)c1cc(Oc2ccc3nc(NCc4cccc(Cl)c4Cl)sc3c2)ccn1` [Compound 134, 4-[2-(2,3-Dichloro-benzylamino)-benzothiazol-6-yloxy]-pyridine-2-carboxylic acid methylamide]: the inhibition at 1 µM in assay [1] (HEK293H cells) worked out at 93%; on kinase domain of cKIT, 98%; in assay [2] (MNFS60 cells), 93%; on kinase domain of PDGFRβ it was 0%; in assay [3], 98%.

For the molecule `CNC(=O)c1cc(Oc2ccc3nc(NC4CCCCC4)sc3c2)ccn1` [Compound 135, 4-(2-Cyclohexylamino-benzothiazol-6-yloxy)-pyridine-2-carboxylic acid methylamide], the inhibition at 1 µM is 91% in assay [1] (HEK293H cells); 68% on kinase domain of cKIT; 96% in assay [2] (MNFS60 cells); 20% at kinase domain of PDGFRβ; 100% in assay [3].

Turning to `CNC(=O)c1cc(Oc2ccc3nc(NC4CCCC(C)C4)sc3c2)ccn1` (centres unmarked) [Compound 136, 4-[2-(3-Methyl-cyclohexyl-amino)-benzothiazol-6-yloxy]-pyridine-2-carboxylic acid methylamide], the inhibition at 1 µM in assay [1] (HEK293H cells) turned out to be 97%; at kinase domain of cKIT, 88%; in assay [2] (MNFS60 cells) it was 100%; on kinase domain of PDGFRβ, 84%; in assay [3] it was 100%.

In the case of `CNC(=O)c1cc(Oc2ccc3nc(N[C@H](C)C4CCCCC4)sc3c2)ccn1` [Compound 138, 4-[2-((R)-1-Cyclohexyl-ethylamino)-benzothiazol-6-yloxy]-pyridine-2-carboxylic acid methylamide], the inhibition at 1 µM in assay [1] (HEK293H cells) was 88%; on kinase domain of cKIT, 93%; in assay [2] (MNFS60 cells) it was 100%; at kinase domain of PDGFRβ it was 93%; in assay [3], 99%.

Consider `CNC(=O)c1cc(Oc2ccc3nc(NCc4cc(F)ccc4F)sc3c2)ccn1` [Compound 139, 4-[2-(2,5-Difluoro-benzylamino)-benzothiazol-6-yloxy]-pyridine-2-carboxylic acid methylamide], for which the inhibition at 1 µM in assay [1] (HEK293H cells) was 94%; on kinase domain of cKIT, 21%; in assay [2] (MNFS60 cells), 48%; on kinase domain of PDGFRβ it was 0%; in assay [3], 100%.

On to `CNC(=O)c1cc(Oc2ccc3nc(NCc4ccncc4)sc3c2)ccn1` [Compound 139], for which the inhibition at 1 µM in assay [1] (compounds of Table 3) turned out to be 88%; at kinase domain of cKIT (compounds of Table 3) it was 24%; in assay [2] (compounds of Table 3), 46%; on kinase domain of PDGFRβ (compounds of Table 3) it was 19%; in assay [3] (compounds of Table 3) it was 100%.

Regarding `CNC(=O)c1cc(Oc2ccc3nc(NCc4ccccc4F)sc3c2)ccn1` [Compound 140, 4-[2-(2-Fluoro-benzylamino)-benzothiazol-6-yloxy]-pyridine-2-carboxylic acid methylamide], the inhibition at 1 µM in assay [1] (HEK293H cells) was found to be 90%; at kinase domain of cKIT it was 92%; in assay [2] (MNFS60 cells), 52%; on kinase domain of PDGFRβ it was 0%; in assay [3], 100%.

As to `CNC(=O)c1cc(Oc2ccc3nc(NCc4ccccc4N4CCOCC4)sc3c2)ccn1` [Compound 142, 4-[2-(2-Morpholin-4-yl-benzylamino)-benzothiazol-6-yloxy]-2-pyridine-2-carboxylic acid methylamide], the inhibition at 1 µM in assay [1] (HEK293H cells) is 88%; on kinase domain of cKIT it was 98%; in assay [2] (MNFS60 cells) it was 100%; on kinase domain of PDGFRβ, 97%; in assay [3], 99%.

For the molecule `CNC(=O)c1cc(Oc2ccc3nc(NCc4ccccc4-n4cccn4)sc3c2)ccn1` [Compound 143, 4-[2-(2-Pyrazol-1-yl-benzyl-amino)-benzothiazol-6-yloxy]-pyridine-2-carboxylic acid methylamide], the inhibition at 1 µM is 91% in assay [1] (HEK293H cells); 33% at kinase domain of cKIT; 97% in assay [2] (MNFS60 cells); 4% on kinase domain of PDGFRβ; 99% in assay [3].

As for `CNC(=O)c1cc(Oc2ccc3nc(NCc4c(OC)cccc4OC)sc3c2)ccn1` [Compound 145, 4-[2-(2,6-Dimethoxy-benzyl-amino)-benzothiazol-6-yloxy]-pyridine-2-carboxylic acid methylamide], the inhibition at 1 µM in assay [1] (HEK293H cells) was determined as 98%; at kinase domain of cKIT, 34%; in assay [2] (MNFS60 cells) it was 100%; at kinase domain of PDGFRβ, 25%; in assay [3], 99%.

As for `CNC(=O)c1cc(Oc2ccc3nc(NC[C@@H](O)c4ccccc4)sc3c2)ccn1` [Compound 145], the inhibition at 1 µM in assay [1] (compounds of Table 3) was found to be 86%; at kinase domain of cKIT (compounds of Table 3), 39%; in assay [2] (compounds of Table 3), 58%; at kinase domain of PDGFRβ (compounds of Table 3), 33%; in assay [3] (compounds of Table 3) it was 100%.

For `CNC(=O)c1cc(Oc2ccc3nc(NCc4cc(OC)ccc4OC)sc3c2)ccn1` [Compound 146, 4-[2-(2,5-Dimethoxy-benzyl-amino)-benzothiazol-6-yloxy]-pyridine-2-carboxylic acid methylamide], the inhibition at 1 µM was found to be 86% in assay [1] (HEK293H cells); 5% on kinase domain of cKIT; 56% in assay [2] (MNFS60 cells); 3% on kinase domain of PDGFRβ; 99% in assay [3].

As to `CNC(=O)c1cc(Oc2ccc3nc(NCc4cccc(F)c4F)sc3c2)ccn1` [Compound 147, 4-[2-(2,3-Difluoro-benzylamino)-benzothiazol-6-yloxy]-pyridine-2-carboxylic acid methylamide], the inhibition at 1 µM in assay [1] (HEK293H cells) is 97%; on kinase domain of cKIT it was 90%; in assay [2] (MNFS60 cells) it was 90%; at kinase domain of PDGFRβ it was 0%; in assay [3], 98%.

Turning to `CNC(=O)c1cc(Oc2ccc3nc(NCC4CCCCCC4)sc3c2)ccn1` [Compound 148, 4-[2-(Cycloheptylmethyl-amino)-benzothiazol-6-yloxy]-pyridine-2-carboxylic acid methylamide], the inhibition at 1 µM in assay [1] (HEK293H cells) worked out at 98%; at kinase domain of cKIT, 99%; in assay [2] (MNFS60 cells), 100%; on kinase domain of PDGFRβ, 100%; in assay [3], 99%.

For the molecule `CNC(=O)c1cc(Oc2ccc3nc(NCc4c(F)cccc4F)sc3c2)ccn1` [Compound 149, 4-[2-(2,6-Difluoro-benzylamino)-benzothiazol-6-yloxy]-pyridine-2-carboxylic acid methylamide], the inhibition at 1 µM in assay [1] (HEK293H cells) came out at 92%; at kinase domain of cKIT it was 4%; in assay [2] (MNFS60 cells) it was 67%; at kinase domain of PDGFRβ, 0%; in assay [3], 99%.

As to `CNC(=O)c1cc(Oc2ccc3nc(NCc4ccccn4)sc3c2)ccn1` [Compound 150, 4-{2-[(Pyridin-2-ylmethyl)-amino]-benzothiazol-6-yloxy}-pyridine-2-carboxylic acid methylamide], the inhibition at 1 µM in assay [1] (HEK293H cells) was determined as 87%; on kinase domain of cKIT it was 34%; in assay [2] (MNFS60 cells), 49%; on kinase domain of PDGFRβ it was 1%; in assay [3], 99%.
